Reference: patent publication US11286247B2, “Acryloyl-containing nuclear transport regulators and uses thereof” (WIGEN BIOMEDICINE TECHNOLOGY (SHANGHAI) CO., LTD., priority 2019, dated 2022)
In brackets after ≈: the same amount, converted by molar mass. Like-named read-outs stand apart in the source and are kept apart here.

Experiments:
[1] = In vivo pharmacokinetic analysis; conditions: ICR, mouse; mice, 5 mg/kg, oral gavage in 0.5% CMC, plasma
Method: A group of 9 ICR mice received 5 mg/kg of compound in 0.5% CMC by oral gavage. Blood was taken before treatment and at 5 min, 30 min, 1, 2, 4, 8, 12 and 24 h after treatment. 80 μL of whole blood was sampled (n=3 at each time point) via retro-orbital bleeds or cardiac puncture. The blood sample was collected into EDTA tubes and plasma were obtained by centrifugation at 1500-1600 rpm for 10 min at 4° C. After centrifugation, plasma sample was transferred to a new tube and stored at −60 to −90° C. for future analysis. Plasma concentration of (compounds was quantified by a method based on liquid chromatography coupled to tandem mass-spectrometric detections (LC/MS/MS). Noncompartmental pharmacokinetics parameters were calculated.

[2] = test system: BxPC-3 cells (pancreatic cancer); assay: Cancer cell proliferation assay, BxPC-3; type: cell-based; conditions: for IC50: Homo sapiens
Method: (§1) BxPC-3 cells (pancreatic cancer) and MDA-MB-231 cells (breast cancer cells) were harvested from exponential phase cultures and seeded in 96-well plates at a cell density of 2×10^4 per well. After overnight attachment, compounds including positive controls were applied to cells at five concentrations and incubated for three days. During the last four hours of incubation, 20 μL of 5 mg/mL […] was added followed by the further addition of 100 μL DMSO. The plates were subsequently shook for 10 minutes to dissolve insoluble purple formazan. Absorbance (A) at a wavelength of 570 nm was quantified. Percentage of inhibition was used for the calculation of IC50 based on the bliss method.

CRM1 = target: T1, CRM1 (Homo sapiens, UniProt O14980); assay: Rev-GFP nuclear export assay; type: cell-based; conditions: U2OS cells expressing Rev-GFP, 1 hour incubation, nuclear retention of Rev-GFP
T1 construct: The nuclear localization of Rev protein depends on CRM1; endogenous in cells; host or cells: U2OS cells stably or transiently expressing Rev-GFP (reporter cargo)
T1 sequence (O14980 whole entry): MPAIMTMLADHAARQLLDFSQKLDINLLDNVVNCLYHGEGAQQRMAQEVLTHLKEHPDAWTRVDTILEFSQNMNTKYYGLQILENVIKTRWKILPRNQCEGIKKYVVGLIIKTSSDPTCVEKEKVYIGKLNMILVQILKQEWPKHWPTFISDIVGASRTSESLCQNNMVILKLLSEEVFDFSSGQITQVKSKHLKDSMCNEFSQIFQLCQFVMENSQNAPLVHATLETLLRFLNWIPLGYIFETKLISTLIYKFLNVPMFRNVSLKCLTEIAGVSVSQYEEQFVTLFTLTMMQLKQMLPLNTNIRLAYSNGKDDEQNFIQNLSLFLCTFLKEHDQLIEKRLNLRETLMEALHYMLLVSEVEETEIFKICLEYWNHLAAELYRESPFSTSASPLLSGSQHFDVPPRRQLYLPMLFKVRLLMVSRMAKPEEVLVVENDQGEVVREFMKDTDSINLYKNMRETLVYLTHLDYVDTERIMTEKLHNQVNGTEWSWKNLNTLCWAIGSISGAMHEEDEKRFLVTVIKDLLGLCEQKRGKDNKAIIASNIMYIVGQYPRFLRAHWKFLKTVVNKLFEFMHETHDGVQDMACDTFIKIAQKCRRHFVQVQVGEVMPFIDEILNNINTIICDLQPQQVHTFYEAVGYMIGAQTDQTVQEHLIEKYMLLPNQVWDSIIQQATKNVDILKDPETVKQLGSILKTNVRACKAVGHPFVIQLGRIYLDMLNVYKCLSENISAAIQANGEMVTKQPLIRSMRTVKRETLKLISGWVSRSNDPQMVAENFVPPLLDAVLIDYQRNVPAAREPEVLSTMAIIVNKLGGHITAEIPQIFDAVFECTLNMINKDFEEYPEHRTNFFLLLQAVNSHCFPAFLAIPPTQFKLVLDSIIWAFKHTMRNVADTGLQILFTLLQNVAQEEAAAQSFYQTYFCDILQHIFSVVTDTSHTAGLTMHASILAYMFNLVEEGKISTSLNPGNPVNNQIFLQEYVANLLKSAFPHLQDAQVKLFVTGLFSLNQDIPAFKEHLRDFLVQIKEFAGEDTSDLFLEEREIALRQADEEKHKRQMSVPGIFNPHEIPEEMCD
Method: The Rev protein from HIV contains nuclear export sequence (NES) at its C terminus and nuclear localization sequence (NLS) at its N-terminus. The nuclear localization of Rev protein depends on CRM1. U2OS cells expressing Rev protein fused with GFP (Rev-GFP) were plated in black 384 plates with clear bottom one day prior to treatment. Compounds were serially diluted 2-fold from 40 μM with DMEM in 384 plates, and then incubated with U2OS cells for an hour. Cells were fixed with 3.7% formaldehyde afterwards and nuclei were stained with Hoechst33258. The nuclear retention of Rev-GFP was examined, and IC50 was calculated.

Aqueous solubility assay = type: physicochemical; conditions: thermodynamic from solid, HPLC
Method: 10-30 mg of compounds were dissolved in water and an HCl solution at pH1.2 respectively, and then were continuously shook for three days, followed by centrifugation at 10000 rpm/minute for five minutes. A 2 mL aliquot of supernatant was removed and diluted to 50 mL to prepare a sample solution. A control solution was prepared by dissolving 2.5 mg compounds in methanol, which was subsequently diluted with water to a final volume of 50 mL. 20 μL of control and sample solutions were injected into HPLC. The area under the curve (A) of the sample solution was compared with that of the control solution and used for determination of the concentration. Solubility was calculated by the formula below. Solubility (mg/mL)=c(control)*25*A(sample)/A(control) • C (control): concentration of the control solution • A (sample): area under the curve of the sample solution • A (control): area under the curve of the control solution

[3] = test system: MDA-MB-231 cells (breast cancer cells); assay: Cancer cell proliferation assay, MDA-MB-231; type: cell-based; conditions: Homo sapiens
Method: as §1

BxPC-3 xenografts = assay: Anti-tumor growth efficacy in pancreatic tumor BxPC3 nude mice xenograft model; type: in vivo; conditions: for Tumor volume D1 / average body weight D1: D1, first day of drug treatment; for Tumor volume D1 / average body weight D1 / TGI (tumor growth inhibition) / Tumor volume D21 / average body weight D21 / RTV (relative tumor volume, Vt/V0) / T/C: oral: KPT-330 and 38 10 mg/kg tiw, 79 2.5 mg/kg tiw, 62 10 mg/kg qd; for TGI (tumor growth inhibition) / Tumor volume D21 / average body weight D21 / RTV (relative tumor volume, Vt/V0): D21; for RTV (relative tumor volume, Vt/V0): *P < 0.05 vs. vehicle group; for T/C: TRTV/CRTV X 100
Method: BxPC-3 cells were cultured in 1640 medium containing 10% FBS at 37° C. and 5% CO2, 8×10^6 BxPc-3 cells were implanted subcutaneously into the left armpit of 40 nude mice. […] Compound 62 was administered orally everyday (qd) at 10 mg/kg, whereas KPT330 and compound 38 were given three times a week (tiw, Monday, Wednesday and Friday) at 10 mg/kg by oral gavage, and compound 79 were given three times a week (tiw, Monday, Wednesday and Friday) at 2.5 mg/kg by oral gavage. Tumor volume and body weight were measured every other day. Mice were sacrificed on day 21, and tumor and terminal body weight were recorded. The relative tumor volume, percent treatment/control values and tumor growth inhibition were calculated and statistics was performed.

[4] = BXPC-3, 72 h, three days incubation, absorbance 570 nm, read-out: IC50 (μM) BxPC-3
[5] = simulated gastric fluid, HCl solution of pH 1.2, shaken three days, read-out: Solubility, HCl solution of pH 1.2
[6] = water, shaken three days, read-out: Solubility, Water
[7] = MDA-MB-231, 72 h, three days incubation, absorbance 570 nm, read-out: IC50 (μM) MDA-MB-231
[8] = BXPC-3, anti-proliferative assay, read-out: IC50 in BxPC-3 cells
[9] = MDA-MB-231, anti-proliferative assay, read-out: IC50 in MDA-MB-231 cells

| Structure (SMILES) | AUC(0-t) [1] [ng·h/mL] | Cmax [1] [ng/mL] | MRT [1] [h] | Tmax [1] [h] | half-life [1] [h] | IC50 [2, 4] [µM] | IC50 (CRM1) [nM] | solubility at 3 days (Aqueous solubility assay; [5]) [µg/mL] | solubility at 3 days (Aqueous solubility assay; [6]) [µg/mL] | IC50 [3, 7] [µM] | Tumor volume D1 (BxPC-3 xenografts) [mm^3] | average body weight D1 (BxPC-3 xenografts) [g] | TGI (tumor growth inhibition) (BxPC-3 xenografts) [%] | Tumor volume D21 (BxPC-3 xenografts) [mm^3] | average body weight D21 (BxPC-3 xenografts) [g] | T/C (BxPC-3 xenografts) [%] | also measured |
| --- | --- | --- | --- | --- | --- | --- | --- | --- | --- | --- | --- | --- | --- | --- | --- | --- | --- |
| CN1CCC2(CC1)CC(=O)N(NC(=O)/C=C\n1cnc(-c3cc(C(F)(F)F)cc(C(F)(F)F)c3)n1)C2 [Compound 23, (Z)-3-(3-(3,5-bis(trifluoromethyl)phenyl)-1H-1,2,4-triazol-1-yl)-N-(8-methyl-3-oxo-2,8-diazaspiro[4.5]decan-2-yl)acrylamide] | – | – | – | – | – | 0.664 | < 1000 | 159 (≈ 307 µM) | 40.3 (≈ 78.1 µM) | 0.407 | – | – | – | – | – | – | – |
| O=C(/C=C\n1cnc(-c2cc(C(F)(F)F)cc(C(F)(F)F)c2)n1)NN1CCOCC1=O [Compound 38, (Z)-3-(3-(3,5-bis(trifluoromethyl)phenyl)-1H-1,2,4-triazol-1-yl)-N-(3-oxomorpholino)acrylamide] | 4390 | 536 | 6.67 | 0.5 | 4.53 | 0.283 | < 1000 | 71.4 (≈ 159 µM) | 50.4 (≈ 112 µM) | 0.654 | 65.89 ± 12.63 | 19.02 | 78.20 | 149.62 ± 23.20 | 20.80 | 36.02 | effect on body weight (in words) (BxPC-3 xenografts; 10 mg/kg, compared to KPT-330): less effect on body weight; RTV (relative tumor volume, Vt/V0) (BxPC-3 xenografts): 2.45*; anti-tumor growth activity in BxPC-3 xenograft model (in words) (BxPC-3 xenografts; Example 79 2.5 mg/kg, Example 38 10 mg/kg, compared to 10 mg/kg KPT-330): greater efficacy |
| COCCN1C(=O)CCN1C(=O)/C=C\n1cnc(-c2cc(C(F)(F)F)cc(C(F)(F)F)c2)n1 [Compound 71, (Z)-1-(3-(3-(3,5-bis(trifluoromethyl)phenyl)-1H-1,2,4-triazol-1-yl)acryloyl)-2-(2-methoxyethyl)pyrazolidin-3-one] | – | – | – | – | – | 0.586 | < 1000 | 147 (≈ 307 µM) | 229 (≈ 479 µM) | 0.245 | – | – | – | – | – | – | – |
| O=C(/C=C\n1cnc(-c2cc(C(F)(F)F)cc(C(F)(F)F)c2)n1)N1CCCN1 [Compound 90, (Z)-3-(3-(3,5-bis(trifluoromethyl)phenyl)-1H-1,2,4-triazol-1-yl)-1-(pyrazolidin-1-yl)prop-2-en-1-one] | – | – | – | – | – | – | – | 349 (≈ 861 µM) | 156 (≈ 386 µM) | – | – | – | – | – | – | – | – |
| O=C(/C=C\n1cnc(-c2cc(C(F)(F)F)cc(C(F)(F)F)c2)n1)NNc1cnccn1 [KPT-330, Selinexor, reference compound] | 2470 | 325 | 6.94 | 0.5 | 2.66 | 0.705 | – | 6.52 (≈ 14.7 µM) | 6.25 (≈ 14.1 µM) | 0.458 | 65.06 ± 6.45 | 19.97 | 77.55 | 151.31 ± 23.90 | 19.97 | 35.02 | IC50 [2, 8]: 0.705 µM; IC50 [3, 9]: 0.455 µM |

Further lines, with some results ahead:

| AUC(0-t) [1] [ng·h/mL] | Cmax [1] [ng/mL] | MRT [1] [h] | Tmax [1] [h] | half-life [1] [h] | IC50 [2, 4] [µM] | IC50 (CRM1) [nM] | solubility at 3 days (Aqueous solubility assay; [5]) [µg/mL] | solubility at 3 days (Aqueous solubility assay; [6]) [µg/mL] | IC50 [3, 7] [µM] | Structure (SMILES) | Tumor volume D1 (BxPC-3 xenografts) [mm^3] | average body weight D1 (BxPC-3 xenografts) [g] | TGI (tumor growth inhibition) (BxPC-3 xenografts) [%] | Tumor volume D21 (BxPC-3 xenografts) [mm^3] | average body weight D21 (BxPC-3 xenografts) [g] | T/C (BxPC-3 xenografts) [%] | also measured |
| --- | --- | --- | --- | --- | --- | --- | --- | --- | --- | --- | --- | --- | --- | --- | --- | --- | --- |
| 2660 | 502 | 6.59 | 0.5 | 4.58 | 0.269 | < 1000 | 14.6 (≈ 33.6 µM) | 11.3 (≈ 26.1 µM) | 0.024 | O=C(/C=C\n1cnc(-c2cc(C(F)(F)F)cc(C(F)(F)F)c2)n1)NN1CCCC1=O [Compound 2, (Z)-3-(3-(3,5-bis(trifluoromethyl)phenyl)-1H-1,2,4-triazol-1-yl)-N-(2-oxopyrrolidin-1-yl)acrylamide] | – | – | – | – | – | – | – |
| 5770 | 697 | 6.76 | 1 | 4.36 | 0.156 | < 1000 | – | – | 0.165 | O=C(/C=C\n1cnc(-c2cc(C(F)(F)F)cc(C(F)(F)F)c2)n1)NN1C(=O)[C@@H]2CC[C@H]1C2 [Compound 33, (Z)-3-(3-(3,5-bis(trifluoromethyl)phenyl)-1H-1,2,4-triazol-1-yl)-N-((1S,4R)-3-oxo-2-azabicyclo[2.2.1]heptan-2-yl)acrylamide] | – | – | – | – | – | – | – |
| – | – | – | – | – | 0.124 | < 1000 | 220 (≈ 508 µM) | 320 (≈ 738 µM) | 0.186 | CN1C(=O)CCN1C(=O)/C=C\n1cnc(-c2cc(C(F)(F)F)cc(C(F)(F)F)c2)n1 [Compound 62, (Z)-1-(3-(3-(3,5-bis(trifluoromethyl)phenyl)-1H-1,2,4-triazol-1-yl)acryloyl)-2-methylpyrazolidin-3-one] | 65.32 ± 6.61 | 20.55 | 77.35 | 152.32 ± 24.78 | 21.08 | 35.10 | RTV (relative tumor volume, Vt/V0) (BxPC-3 xenografts): 2.33* |
| – | – | – | – | – | 0.137 | < 1000 | 27.4 (≈ 58 µM) | 20.9 (≈ 44.2 µM) | 0.119 | O=C(/C=C\n1cnc(-c2cc(C(F)(F)F)cc(C(F)(F)F)c2)n1)N1CCC(=O)N1CC1CC1 [Compound 72, (Z)-1-(3-(3-(3,5-bis(trifluoromethyl)phenyl)-1H-1,2,4-triazol-1-yl)acryloyl)-2-(cyclopropylmethyl)pyrazolidin-3-one] | – | – | – | – | – | – | – |
| 4080 | 389 | 6.56 | 0.5 | 2.7 | 0.041 | < 1000 | – | – | 0.021 | COC1=CC(=O)N(NC(=O)/C=C\n2cnc(-c3cc(C(F)(F)F)cc(C(F)(F)F)c3)n2)CC1 [Compound 87, (Z)-3-(3-(3,5-bis(trifluoromethyl)phenyl)-1H-1,2,4-triazol-1-yl)-N-(4-methoxy-6-oxo-3,6-dihydropyridin-1(2H)-yl)acrylamide] | – | – | – | – | – | – | IC50 [2, 8]: 0.041 µM; folds of enhancement of activity in the anti-proliferative assay ([2]; in comparison to KPT330, BxPC-3 and MDA-MB-231 cells): 20 folds; IC50 [3, 9]: 0.021 µM |
